11 compounds from US11584744B2 (UNIVERSITY OF WASHINGTON, priority 2017, dated 2023) can be followed below.

Converted amounts (≈) assume the structure as drawn. “And” between values parts separate entries of the source, which are not always exact repeats. Identical values can stand only once. Like-named read-outs stand apart in the source and are kept apart here. A value given as a limit tells only on which side of the number the result lay.

Assay [1] relates to S. aureus MSSA (ATCC 29213). Description: MIC susceptibility testing. Format: cell-based, Staphylococcus aureus. As to conditions: S. aureus ATCC 29213; for MIC: Staphylococcus aureus, read-out: (F) S. aureus (ATCC 29213) MIC.
Assay [2] relates to E. faecium VRE (ATCC 51559). Nature of the assay: MIC susceptibility testing. The assay is classed as cell-based, Enterococcus faecium. As to conditions: E. faecium ATCC 51559; for MIC: Enterococcus faecium, read-out: (I) E. faecium (ATCC 51559) MIC. The source says: Media and culture conditions. Mueller Hinton broth (MHB), cation adjusted Mueller Hinton broth (CA-MHB), and Brain Heart Infusion broth (BHI) were purchased from Becton Dickinson (Franklin Lakes, N.J.). Tryptic soy agar (TSA) plates, TSA with 5% sheep blood plates, and CA-MHB with 3% laked horse blood were purchased from Remel (San Diego, Calif.). MHB was used to assay all Staphylococcus aureus strains. CA-MHB was used for Staphylococcus epidermidis, Enterococcus faecalis, Enterococcus faecium, Escherichia coli, and Pseudomonas aeruginosa. CA-MHB supplemented with 3% laked horse blood was used for Streptococcus pneumoniae and Streptococcus pyogenes. Staphylococcus, Enterococcus, Escherichia, and Pseudomonas strains were cultured at 37° C. with ambient air. Streptococcus strains were cultured in 37° C. with 5% CO2. Separate conditions for radiolabeled precursor uptake assays are described below.
Susceptibility testing: Minimum inhibitory concentration (MIC) determinations were performed in triplicate in 96-well round bottom microtiter plates (Corning, Corning N.Y.) as described by the Clinical and Laboratory Standards Institute (CLSI). Serial two-fold dilutions of compounds were added to plates in 50 μL volumes. An additional 50 μL of media containing bacterial cells (1×10^6 CFUs/mL) was then added to each well. Maximum DMSO concentrations were 0.5%. Plates were incubated at 37° C. for at least 18 h before reading the susceptibility result by optical absorbance (OD600) using a BioTek ELx800. The lowest concentration causing ≥90% growth inhibition compared to the untreated control was recorded as the MIC (and also corresponded to the visual MIC). MICs were measured at least twice and the higher value (if different) was recorded herein.

The next assay has as its target T1, MetRS (T. brucei) (Trypanosoma brucei brucei, UniProt Q38C91).
T1 sequence (Q38C91 1-773): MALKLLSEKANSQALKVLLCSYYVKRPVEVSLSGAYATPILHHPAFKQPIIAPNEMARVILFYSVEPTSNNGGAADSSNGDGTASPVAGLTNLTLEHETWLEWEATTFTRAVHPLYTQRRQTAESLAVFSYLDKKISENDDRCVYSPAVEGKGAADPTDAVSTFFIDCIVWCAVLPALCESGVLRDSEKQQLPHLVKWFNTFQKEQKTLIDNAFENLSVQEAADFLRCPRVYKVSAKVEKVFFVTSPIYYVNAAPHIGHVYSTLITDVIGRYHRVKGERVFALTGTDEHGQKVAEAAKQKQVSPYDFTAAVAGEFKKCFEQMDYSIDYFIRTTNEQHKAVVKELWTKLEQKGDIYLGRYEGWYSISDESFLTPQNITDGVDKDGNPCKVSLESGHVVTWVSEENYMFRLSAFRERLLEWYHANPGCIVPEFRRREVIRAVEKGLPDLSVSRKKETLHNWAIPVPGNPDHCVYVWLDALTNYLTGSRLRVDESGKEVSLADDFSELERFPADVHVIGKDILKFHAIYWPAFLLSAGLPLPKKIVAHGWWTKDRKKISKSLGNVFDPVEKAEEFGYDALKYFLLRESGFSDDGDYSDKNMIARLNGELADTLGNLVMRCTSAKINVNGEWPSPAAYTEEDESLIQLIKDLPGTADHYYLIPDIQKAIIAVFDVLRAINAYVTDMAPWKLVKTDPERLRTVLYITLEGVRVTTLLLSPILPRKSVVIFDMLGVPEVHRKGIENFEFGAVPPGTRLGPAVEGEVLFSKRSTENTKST
Description: MetRS (T. brucei) enzyme inhibition. Format: biochemical.

The next assay addresses MetRS (C. parvum) (Cryptosporidium parvum, UniProt Q5CVN0). Nature of the assay: MetRS (C. parvum) enzyme inhibition. Format: biochemical. Conditions: read-out: (C) MetRS (C. parvum) IC50.
Another assay deals with T. cruzi. Nature of the assay: T. cruzi growth inhibition. The assay is classed as cell-based, Trypanosoma cruzi. Conditions: Trypanosoma cruzi; read-out: (E) T. cruzi EC50.
The test system of the next assay is C. parvum. Description: C. parvum growth inhibition. The assay is classed as cell-based, Cryptosporidium parvum. As to conditions: Cryptosporidium parvum; read-out: (J) C. parvum EC50.
For assay [3], the system named is S. aureus MRSA (ATCC 33591). Nature of the assay: MIC susceptibility testing. The assay is classed as cell-based, Staphylococcus aureus. Conditions: Staphylococcus aureus, MRSA ATCC33591, read-out: (G) MRSA (ATCC33591) MIC. The procedure, abridged: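 CLSI broth microdilution with two-fold compound dilutions, in triplicate; cells added in medium at 1×10^6 CFUs/mL, DMSO ≤0.5%. Media: MHB for S. aureus, CA-MHB for E. coli and E. faecium, CA-MHB plus 3% laked horse blood for S. pyogenes (5% CO2).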

Another assay relates to T. brucei. Nature of the assay: T. brucei growth inhibition. The assay is classed as cell-based, Trypanosoma brucei. As to conditions: read-out: (D) T. brucei EC50.

MetRS (C. parvum), sequence (Q5CVN0 entry or part of it): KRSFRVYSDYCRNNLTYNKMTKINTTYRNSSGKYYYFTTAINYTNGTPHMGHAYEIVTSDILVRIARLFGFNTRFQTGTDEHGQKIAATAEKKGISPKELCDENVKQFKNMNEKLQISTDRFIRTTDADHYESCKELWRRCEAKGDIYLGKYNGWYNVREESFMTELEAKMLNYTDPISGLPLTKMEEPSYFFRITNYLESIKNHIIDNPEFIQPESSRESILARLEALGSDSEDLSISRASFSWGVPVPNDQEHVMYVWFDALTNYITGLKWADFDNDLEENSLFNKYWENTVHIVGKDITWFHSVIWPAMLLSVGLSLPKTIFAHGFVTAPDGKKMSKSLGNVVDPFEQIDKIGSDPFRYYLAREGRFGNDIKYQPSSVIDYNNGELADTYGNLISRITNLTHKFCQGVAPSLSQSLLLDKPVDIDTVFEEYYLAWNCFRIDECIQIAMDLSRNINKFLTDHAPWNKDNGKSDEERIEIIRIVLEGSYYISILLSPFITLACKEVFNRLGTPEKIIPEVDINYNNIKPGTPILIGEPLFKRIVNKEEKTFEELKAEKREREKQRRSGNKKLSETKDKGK

`O=c1n(Cc2nc3ccc(F)nc3[nH]2)cc(Cc2ccc(Cl)cc2Cl)n1C1CC1` [Compound 2070, 3-cyclopropyl-4-[(2,4-dichlorophenyl)methyl]-1-({5-fluoro-1H-imidazo[4,5-b]pyridin-2-yl}methyl)-2,3-dihydro-1H-imidazol-2-one]: the “(F) S. aureus (ATCC 29213) MIC” value in assay [1] was 0.0371 µg/mL. Also, the results for the MIC in assay [1] and in assay [2] were 0.0609 µg/mL (≈ 0.141 µM) and 0.0246 µg/mL (≈ 0.0569 µM), respectively. The 50% inhibitory concentration (IC50) at MetRS (T. brucei) and at MetRS (C. parvum) was below 40 nM in each case. The figures for the EC50 in the assay with T. cruzi and with C. parvum were 133 nM and above 2000 nM, respectively.
`COc1ccc(-c2cnn3c2CN(Cc2nc4nc(Cl)ccc4[nH]2)CC3)c(Cl)c1` [Compound 2172, 5-chlor0-2-((3-(2-chloro-4-methoxyphenyl)-6,7-dihydropyrazolo[1,5-a]pyrazin-5(4H)-yl)methyl)-1H-imidazo[4,5-b]pyridine]: the MIC is 1.32 µg/mL (≈ 3.07 µM) in assay [3], 1.69 µg/mL (≈ 3.94 µM) in assay [1] and 0.467 µg/mL (≈ 1.09 µM) in assay [2]. For the same compound, in assay [1], the “(F) S. aureus (ATCC 29213) MIC” value was found to be 0.898 µg/mL. For the same compound, the IC50 against MetRS (T. brucei) and on MetRS (C. parvum) was below 40 nM each time. Also, the figures for the EC50 in the assay with T. brucei (Trypanosoma brucei), in the assay with T. brucei and with T. cruzi were 29.3 nM, 35 nM and 213 nM, respectively.
`COC(=O)Nc1ccc(-c2ccc(OC)cc2Cl)n2cc(Cc3nc4ccc(Cl)cc4[nH]3)nc12` [Compound 2181, methyl N-{2-[(6-chloro-1H-1,3-benzodiazol-2-yl)methyl]-5-(2-chloro-4-methoxyphenyl)imidazo[1,2-a]pyridin-8-yl}carbamate]: the MIC in assay [3] turned out to be 0.822 µg/mL (≈ 1.66 µM); in assay [2], 0.694 µg/mL (≈ 1.4 µM). Further, the IC50 is below 40 nM at MetRS (T. brucei) and 52.9 nM on MetRS (C. parvum). In addition, the EC50 with T. brucei (Trypanosoma brucei) is 61.1 nM; in the assay on T. cruzi it was 538 nM.
For the compound `CC(C)(N)Cn1c(Cc2ccc(Cl)cc2Cl)cn(Cc2nc3nc(Cl)ccc3[nH]2)c1=O` [Compound 2212, 5-(2,4-dichlorobenzyl)-1-(2-amin0-2-methylpropyl)-3-((5-chloro-1H-imidazo[4,5-b]pyridin-2-yl)methyl)-1H-imidazol-2(3H)-one], in assay [1], the “(F) S. aureus (ATCC 29213) MIC” value is 1.33, μg/ml and 1.65 μg/ml. Besides, the MIC is 1.72 µg/mL (≈ 3.58 µM) in assay [1] and 0.512 µg/mL (≈ 1.07 µM) in assay [2]. Besides, the “(I) E. faecium (ATCC 51559) MIC” value in assay [2] came to 0.426 µg/mL. Also, the IC50 against MetRS (T. brucei) is below 40 nM; on MetRS (C. parvum) it was 45.7 nM. The EC50 with T. brucei (Trypanosoma brucei) is 3.03 nM; with T. cruzi, 236 nM; in the assay with C. parvum, above 2000 nM.
In the case of `COC(=O)Cn1c(C(O)c2ccc(Cl)cc2Cl)cn(Cc2nc3ccc(Cl)nc3[nH]2)c1=O` (centres unmarked) [Compound 2217, methyl 2-(3-((5-chloro-3H-imidazo[4,5-b]pyridin-2-yl)methyl)-5-((2,4-dichlorophenyl)(hydroxy)methyl)-2-oxo-2,3-dihydro-1H-imidazol-1-yl)acetate], in assay [1], the “(F) S. aureus (ATCC 29213) MIC” value was 3.12, μg/ml and 3.27 μg/ml. In addition, the minimal inhibitory concentration (MIC) in assay [1] is above 2.5 µg/mL; in assay [2], 0.691 µg/mL (≈ 1.39 µM). Moreover, the IC50 at MetRS (T. brucei) is below 40 nM; at MetRS (C. parvum) it was 59.3 nM. Also, the results for the EC50 in the assay with T. brucei (Trypanosoma brucei), in the assay with T. cruzi and with C. parvum were 11.6 nM, 2600 nM and above 2000 nM, respectively.
As for `O=c1n(Cc2nc3nc(Cl)ccc3[nH]2)cc(Cc2ccc(Cl)cc2Cl)n1CC1(O)CC1` [Compound 2225, 1-({5-chloro-1H-imidazo[4,5-b]pyridin-2-yl}methyl)-4-[(2,4-dichlorophenyl)-methyl]-3-[(1-hydroxycyclopropyl)methyl]-2,3-dihydro-1H-imidazol-2-one], in assay [1], the “(F) S. aureus (ATCC 29213) MIC” value worked out at 3.02 µg/mL. The figures for the MIC in assay [1] and in assay [2] were above 2.5 µg/mL and 1.52 µg/mL (≈ 3.17 µM), respectively. In addition, the IC50 at MetRS (C. parvum) is 49.2 nM. In addition, the EC50 with T. brucei (Trypanosoma brucei) came to 14.5 nM; in the assay on T. brucei, 26.9 nM; in the assay with T. cruzi it was 245 nM; in the assay with C. parvum it was 1840 nM.
`CCNC(=O)Cn1c(C(=O)c2ccc(Cl)cc2Cl)cn(Cc2nc3nc(Cl)ccc3[nH]2)c1=O` [Compound 2227, 2-[3-({5-chloro-1H-imidazo[4,5-b]pyridin-2-yl}methyl)-5-(2,4-dichlorobenzoyl)-2-oxo-2,3-dihydro-1H-imidazol-1-yl]—N-ethylacetamide]: the MIC in assay [3] was determined as 0.482 µg/mL (≈ 0.949 µM); in assay [1] it was 1.07 µg/mL (≈ 2.11 µM); in assay [2], 0.175 µg/mL (≈ 0.345 µM). Further, the IC50 at MetRS (C. parvum) was below 40 nM. The EC50 was below 0.91 nM with T. brucei (Trypanosoma brucei), 1.47 nM in the assay on T. brucei, 819 nM in the assay with T. cruzi and above 2000 nM with C. parvum.
On to `COc1ccc(-c2cccc3c2CN(Cc2nc4c(C#N)c(Cl)ccc4[nH]2)C3)c(Cl)c1` [Compound 2229, 5-chlor0-2-((4-(2-chloro-4-methoxyphenyl)isoindolin-2-yl)methyl)-1H-benzo[d]imidazole-4-carbonitrile], for which the MIC in assay [3] turned out to be 0.762 µg/mL (≈ 1.7 µM); in assay [1], 0.926 µg/mL (≈ 2.06 µM); in assay [2], 0.327 µg/mL (≈ 0.728 µM). The IC50 on MetRS (C. parvum) was 84.7 nM. Also, the values for the EC50 in the assay on T. brucei (Trypanosoma brucei), with T. cruzi and in the assay with C. parvum were 91.4 nM, 650 nM and 1980 nM, respectively.
`COc1ccc(-c2cccc3c2CN(Cc2nc4cc(Cl)ccc4[nH]2)C3=O)c(Cl)c1` [Compound 2232, 2-((5-chloro-1H-benzo[d]imidazol-2-yl)methyl)-4-(2-chloro-4-methoxyphenyl)isoindolin-1-one]: the MIC in assay [3] stood at 0.448 µg/mL (≈ 1.02 µM); in assay [2], 0.415 µg/mL (≈ 0.947 µM). Also, at MetRS (C. parvum), the IC50 stood at 53.9 nM. The EC50 was 71.3 nM in the assay on T. brucei (Trypanosoma brucei), 244 nM in the assay with T. cruzi and above 2000 nM with C. parvum.
As to `NC(=O)Cn1c(C(=O)c2ccc(Cl)cc2Cl)cn(Cc2nc3ccc(Cl)nc3[nH]2)c1=O` [Compound 2234, 2-[3-({5-chloro-1H-imidazo[4,5-b]pyridin-2-yl}methyl)-5-(2,4-dichlorobenzoyl)-2-oxo-2,3-dihydro-1H-imidazol-1-yl]acetamide], the MIC in assay [3] is above 8 µg/mL; in assay [2], 1.06 µg/mL (≈ 2.21 µM). In addition, on MetRS (C. parvum), the IC50 was below 40 nM. For the same compound, the EC50 is 9.17 nM in the assay with T. brucei (Trypanosoma brucei), 7.98 nM with T. brucei, 2100 nM with T. cruzi and above 2000 nM in the assay with C. parvum.
`CCOC(=O)Nn1c(C(=O)c2ccc(Cl)cc2Cl)cn(Cc2nc3ccc(Cl)nc3[nH]2)c1=O` [Compound 2244]: the MIC in assay [3] (ATCC33591|MRSA) stood at 1.57 µg/mL (≈ 3.08 µM); in assay [1] (ATCC29213|MSSA), 1.66 µg/mL (≈ 3.26 µM); in assay [2] (ATCC51559|VRE), 0.531 µg/mL (≈ 1.04 µM). Besides, the “(F) S. aureus (ATCC 29213) MIC” value in assay [1] is 2.21 µg/mL. Moreover, the “(I) E. faecium (ATCC 51559) MIC” value in assay [2] is 0.555 µg/mL. For the same compound, the IC50 on MetRS (C. parvum) is below 40 nM. Moreover, the half-maximal effective concentration (EC50) in the assay on T. cruzi is 541 nM; in the assay with C. parvum it was above 2000 nM.

Broadly, the MIC is the lowest concentration found to suppress growth. The term IC50 denotes the point on the concentration scale where inhibition reaches its midpoint. In general, EC50 refers to the concentration at which the effect is half-maximal.
